{
  "source": "patent US8877715B2",
  "about": "“Cytotoxic conjugates having neuropeptide Y receptor binding compound” (priority 2009, dated 2014)",
  "test_system": "Human MCF-7 breast carcinoma cells",
  "assay": "In vivo growth assay, MCF-7 xenograft (Study A and Study B)",
  "parameters": "species or system nude mice",
  "conditions": "Study B; for TGI: Day 15",
  "method": "Once-weekly treatments were administered for three weeks by tail vein injection except in cases where poor drug solubility or tail necrosis necessitated intraperitoneal injections. […] Example 93 was evaluated in Study B at 55.45 mg/kg, 110.9 mg/kg and 221.8 mg/kg. Antitumor activity was assessed by tumor growth delay (“TGD”) defined as the difference in median time to endpoint tumor size in a treatment group compared to the control group, and by tumor growth inhibition (“TGI”) defined as the difference between median tumor volumes of the treatment and control groups on a study day providing a balance between measurable group responses and large group sizes. Toxicity was evaluated by body weight measurements and clinical observations.\nFemale nude mice (nu/nu, Harlan) were 10-11 weeks old and had body weight ranges of\nThe animals were fed ad libitum water (reverse osmosis, 1 ppm Cl) and NIH 31 Modified and Irradiated Lab Diet® consisting of 18.0% crude protein, 5.0% crude fat, and 5.0% crude fiber. The mice were housed on irradiated ALPHA-Dri® Bed-o′ Cobs® Laboratory Animal Bedding in static microisolators on a 12-hour light cycle at 21-22° C.\nHuman MCF-7 breast carcinoma cells were maintained in RPMI 1640 medium containing 100 units/mL penicillin G sodium, 100 μg/mL streptomycin sulfate, and 25 μg/mL gentamicin. The medium was supplemented with 10% heat-inactivated fetal bovine serum and 2 mM glutamine. Additional buffering was provided with 10 mM HEPES and 0.075% sodium bicarbonate. The tumor cells were cultured in tissue culture flasks in a humidified incubator at 37° C. in an atmosphere of 95% air and 5% CO2.\nThree to seven days prior to cell injection, a pellet containing 17-β-estradiol (0.36 mg, 60-day release, Innovative Research of America) was implanted subcutaneously between the scapulae of each mouse.\nThe MCF-7 tumor cells used for implantation were harvested during log phase growth and resuspended in phosphate-buffered saline at 5×10^7 cells/mL. […] Tumors were monitored twice weekly and then daily as their volumes approached 80-120 mm^3. […] Thus, a separate study (“Study B”) was set up comprising six groups (n=10) of animals. In this study, 17 days elapsed between cell implantation and group assignment. […] Tumor size, in mm^3, was calculated from:\n[formula] where w=width and l=length in mm of the MCF-7 tumor. Tumor weight may be estimated with the assumption that 1 mg is equivalent to 1 mm^3 of tumor volume.\nExample 93 dosing solutions were prepared fresh in 0.1N acetic acid for each day of treatment.\nCamptothecin (Lot No. 034K3648, Sigma) stock solutions were made from 60% DMA and 40% Tween 80 and stored at room temperature during the study. Dosing solutions were prepared fresh on each day of dosing by diluting the stocks 1:20 in saline.\nThe treatment plans are summarized in Table 3A for Study A and Table 3B for Study B.\nAll treatments and vehicles were given once-weekly for three doses (“qwk×3”). Group 1 mice received no gavage and no injections, and served as a control for tumor progression and estrogen toxicity. Group 2 animals received vehicle.\nEach treatment dose was administered in a volume of 0.2 mL per 20 g of body weight, and was scaled to the body weight of the animal.\nMedian tumor growth curves of FIGS. 1-3 show median tumor volumes as a function of time. When an animal exited the study due to tumor size, the final tumor volume recorded for the animal was included with the data used to calculate the group median tumor volume at subsequent time points. Curves were truncated after 50% of animals in a group had exited the study.",
  "data": [
    {"substance": "[camptothecin-rvD-Asp-Suc-Tyr^1, Nle^17, A6c^31, 4Hyp^34]hNPY(1-36)-NH2 [Example 93]", "values": [
      {"measurement": "tumor growth delay (TGD)", "value": "TGD analysis did not distinguish responses to Example 93 from tumor growth in the untreated control"},
      {"measurement": "TGI", "setting": "110.9 mg/kg", "value": 71, "unit": "%"},
      {"measurement": "TGI", "setting": "221.8 mg/kg", "value": 77, "unit": "%"},
      {"measurement": "mean tumor volume", "setting": "G 4: 55.45 mg/kg qwk x 3, D 1", "value": 112.9, "unit": "mm^3"},
      {"measurement": "mean tumor volume", "setting": "G 4: 55.45 mg/kg qwk x 3, D 4", "value": 206.3, "unit": "mm^3"},
      {"measurement": "mean tumor volume", "setting": "G 4: 55.45 mg/kg qwk x 3, D 8", "value": 227.6, "unit": "mm^3"},
      {"measurement": "mean tumor volume", "setting": "G 4: 55.45 mg/kg qwk x 3, D 12", "value": 236.1, "unit": "mm^3"},
      {"measurement": "mean tumor volume", "setting": "G 4: 55.45 mg/kg qwk x 3, D 15", "value": 323.1, "unit": "mm^3"},
      {"measurement": "mean tumor volume", "setting": "G 4: 55.45 mg/kg qwk x 3, D 19", "value": 348.4, "unit": "mm^3"},
      {"measurement": "mean tumor volume", "setting": "G 4: 55.45 mg/kg qwk x 3, D 22", "value": 343.3, "unit": "mm^3"},
      {"measurement": "mean tumor volume", "setting": "G 4: 55.45 mg/kg qwk x 3, D 26", "value": 366.9, "unit": "mm^3"},
      {"measurement": "mean tumor volume", "setting": "G 4: 55.45 mg/kg qwk x 3, D 29", "value": 426.8, "unit": "mm^3"},
      {"measurement": "mean tumor volume", "setting": "G 4: 55.45 mg/kg qwk x 3, D 33", "value": 524.5, "unit": "mm^3"},
      {"measurement": "mean tumor volume", "setting": "G 4: 55.45 mg/kg qwk x 3, D 36", "value": 621.9, "unit": "mm^3"},
      {"measurement": "mean tumor volume", "setting": "G 4: 55.45 mg/kg qwk x 3, D 40", "value": 452.8, "unit": "mm^3"},
      {"measurement": "mean tumor volume", "setting": "G 5: 110.9 mg/kg qwk x 3, D 1", "value": 112.8, "unit": "mm^3"},
      {"measurement": "mean tumor volume", "setting": "G 5: 110.9 mg/kg qwk x 3, D 4", "value": 217.3, "unit": "mm^3"},
      {"measurement": "mean tumor volume", "setting": "G 5: 110.9 mg/kg qwk x 3, D 8", "value": 213, "unit": "mm^3"},
      {"measurement": "mean tumor volume", "setting": "G 5: 110.9 mg/kg qwk x 3, D 12", "value": 186.6, "unit": "mm^3"},
      {"measurement": "mean tumor volume", "setting": "G 5: 110.9 mg/kg qwk x 3, D 15", "value": 242.5, "unit": "mm^3"},
      {"measurement": "mean tumor volume", "setting": "G 5: 110.9 mg/kg qwk x 3, D 19", "value": 212.6, "unit": "mm^3"},
      {"measurement": "mean tumor volume", "setting": "G 5: 110.9 mg/kg qwk x 3, D 22", "value": 207.7, "unit": "mm^3"},
      {"measurement": "mean tumor volume", "setting": "G 5: 110.9 mg/kg qwk x 3, D 26", "value": 225.5, "unit": "mm^3"},
      {"measurement": "mean tumor volume", "setting": "G 5: 110.9 mg/kg qwk x 3, D 29", "value": 308.7, "unit": "mm^3"},
      {"measurement": "mean tumor volume", "setting": "G 5: 110.9 mg/kg qwk x 3, D 33", "value": 112.3, "unit": "mm^3"},
      {"measurement": "mean tumor volume", "setting": "G 5: 110.9 mg/kg qwk x 3, D 36", "value": 141.1, "unit": "mm^3"},
      {"measurement": "mean tumor volume", "setting": "G 5: 110.9 mg/kg qwk x 3, D 40", "value": 229.5, "unit": "mm^3"},
      {"measurement": "mean tumor volume", "setting": "G 6: 221.8 mg/kg qwk x 3, D 1", "value": 112.7, "unit": "mm^3"},
      {"measurement": "mean tumor volume", "setting": "G 6: 221.8 mg/kg qwk x 3, D 4", "value": 197.9, "unit": "mm^3"},
      {"measurement": "mean tumor volume", "setting": "G 6: 221.8 mg/kg qwk x 3, D 8", "value": 170.3, "unit": "mm^3"},
      {"measurement": "mean tumor volume", "setting": "G 6: 221.8 mg/kg qwk x 3, D 12", "value": 108, "unit": "mm^3"},
      {"measurement": "mean tumor volume", "setting": "G 6: 221.8 mg/kg qwk x 3, D 15", "value": 122.8, "unit": "mm^3"},
      {"measurement": "mean tumor volume", "setting": "G 6: 221.8 mg/kg qwk x 3, D 19", "value": 66.6, "unit": "mm^3"},
      {"measurement": "mean tumor volume", "setting": "G 6: 221.8 mg/kg qwk x 3, D 22", "value": 66, "unit": "mm^3"},
      {"measurement": "mean tumor volume", "setting": "G 6: 221.8 mg/kg qwk x 3, D 26", "value": 80.4, "unit": "mm^3"},
      {"measurement": "mean tumor volume", "setting": "G 6: 221.8 mg/kg qwk x 3, D 29", "value": 90.1, "unit": "mm^3"},
      {"measurement": "mean tumor volume", "setting": "G 6: 221.8 mg/kg qwk x 3, D 33", "value": 109.6, "unit": "mm^3"},
      {"measurement": "mean tumor volume", "setting": "G 6: 221.8 mg/kg qwk x 3, D 36", "value": 123.8, "unit": "mm^3"},
      {"measurement": "mean tumor volume", "setting": "G 6: 221.8 mg/kg qwk x 3, D 40", "value": 233.2, "unit": "mm^3"},
      {"measurement": "tumor growth curves", "setting": "all dose levels", "value": "clear reduction in tumor growth at all dose levels"}
    ]}
  ]
}
